The values that follow come from ChEMBL document CHEMBL1146174, “Synthesis of antimicrobial 2,9,10-trisubstituted-6-oxo-7,12-dihydro-chromeno[3,4-b]quinoxalines” (2006).

Test [1] has as its system Pseudomonas aeruginosa. Put plainly: Antibacterial activity against Pseudomonas aeruginos by measuring zone of inhibition at 100 ug/ml after 24 hrs. The class given is functional. To be noted: read-out: IZ.
In test [2] the test system is Fusarium oxysporum. Nature of the test: Antifungal activity against Fusarium oxysporum by measuring zone of inhibition at 100 ug/ml after 48 hrs. Type of test: functional. To be noted: read-out: IZ.
Test [3] deals with Escherichia coli. Nature of the test: Antibacterial activity against Escherichia coli by measuring zone of inhibition at 100 ug/ml after 24 hrs. Type of test: functional. To be noted: read-out: IZ.
Test [4] relates to Bacillus subtilis. Put plainly: Antibacterial activity against Bacillus subtilis by measuring zone of inhibition at 100 ug/ml after 24 hrs. Type of test: functional. To be noted: read-out: IZ.
In test [5] the test system is Aspergillus flavus. Put plainly: Antifungal activity against Aspergillus flavus by measuring zone of inhibition at 100 ug/ml after 48 hrs. Type of test: functional. Particulars: read-out: IZ.
In test [6] the test system is Staphylococcus aureus. Put plainly: Antibacterial activity against Staphylococcus aureus by measuring zone of inhibition at 100 ug/ml after 24 hrs. Type of test: functional. Particulars: read-out: IZ.
The test system of test [7] is Bacillus subtilis. Nature of the test: Antibacterial activity against Bacillus subtilis by measuring zone of inhibition at 30 ug after 24 hrs. To be noted: read-out: IZ. Type of test: functional.
Test [8] relates to Pseudomonas aeruginosa. Nature of the test: Antibacterial activity against Pseudomonase aeruginosa by measuring zone of inhibition at 30 ug after 24 hrs. The class given is functional. Particulars: read-out: IZ.
Test [9] concerns Staphylococcus aureus. Nature of the test: Antibacterial activity against Staphylococcus aureus by measuring zone of inhibition at 30 ug after 24 hrs. The class given is functional. Particulars: read-out: IZ.
In test [10] the test system is Escherichia coli. Nature of the test: Antibacterial activity against Escherichia coli by measuring zone of inhibition at 30 ug after 24 hrs. To be noted: read-out: IZ. Type of test: functional.
For test [11], the system named is Aspergillus flavus. Nature of the test: Antifungal activity against Aspergillus flavus by measuring zone of inhibition at 30 ug after 48 hrs. Type of test: functional, organism-based.
The subject of test [12] is Fusarium oxysporum. Put plainly: Antifungal activity against Fusarium oxysporum by measuring zone of inhibition at 30 ug after 48 hrs. Type of test: functional, organism-based.

In the case of `COc1ccc2oc(=O)c3c(c2c1)Nc1ccccc1N3`, the zone of inhibition at 100 µg/mL in [1] was determined as 7 mm; in [2] it was 6 mm; in test [3], 6 mm; in test [4] it was 5 mm; in [5], 5 mm; in [6], 8 mm.

As to `Cc1cc2c(cc1C)Nc1c(c(=O)oc3ccc(Cl)cc13)N2`, the zone of inhibition at 100 µg/mL in test [1] stood at 9 mm; in test [2], 4 mm; in [3], 8 mm; in [4], 5 mm; in [5], 3 mm; in [6] it was 7 mm.

On to `Cc1cc2c(cc1C)Nc1c(c(=O)oc3ccc(F)cc13)N2`, for which the zone of inhibition at 100 µg/mL amounted to 8 mm in test [1]; 4 mm in test [2]; 7 mm in test [3]; 5 mm in test [4]; 3 mm in [5]; 6 mm in test [6].

Regarding `COc1ccc2oc(=O)c3c(c2c1)Nc1cc(C)c(C)cc1N3`, the zone of inhibition at 100 µg/mL in test [1] came to 10 mm; in [2], 8 mm; in test [3] it was 9 mm; in test [4], 9 mm; in test [5], 6 mm; in [6] it was 11 mm.

Consider `O=c1oc2ccc(Br)cc2c2c1Nc1ccccc1N2`, for which the zone of inhibition at 100 µg/mL came to 6 mm in [1]; 5 mm in test [2]; 5 mm in test [3]; 4 mm in test [4]; 4 mm in test [5]; 8 mm in test [6].

For the molecule `O=c1oc2ccc([N+](=O)[O-])cc2c2c1Nc1ccccc1N2`, the zone of inhibition at 100 µg/mL in test [1] is 4 mm; in [2], 3 mm; in test [3], 4 mm; in test [4] it was 4 mm; in test [5] it was 4 mm; in test [6], 5 mm.

Regarding `CN[C@@H]1[C@H](O[C@H]2[C@H](O[C@H]3[C@H](O)[C@@H](O)[C@H](N=C(N)N)[C@@H](O)[C@@H]3N=C(N)N)O[C@@H](C)[C@]2(O)C=O)O[C@@H](CO)[C@H](O)[C@H]1O` [STREPTOMYCIN], the zone of inhibition at 30 µg/disc in test [7] came to 10 mm; in [8], 10 mm; in test [9], 12 mm; in test [10], 11 mm.

Turning to NYSTATIN, the inhibition zone (IZ) in test [11] stood at 9 mm; in test [12], 8 mm.

Take `O=c1oc2ccc(Cl)cc2c2c1Nc1ccccc1N2`: the zone of inhibition at 100 µg/mL in test [1] came out at 5 mm; in [2] it was 4 mm; in test [3], 4 mm; in [4], 3 mm; in test [5], 3 mm; in test [6] it was 6 mm.

Take `Cc1ccc2oc(=O)c3c(c2c1)Nc1cc(C)c(C)cc1N3`: the zone of inhibition at 100 µg/mL amounted to 5 mm in test [1]; 4 mm in test [2]; 4 mm in test [3]; 3 mm in test [4]; 2 mm in test [5]; 5 mm in test [6].

As to `O=c1oc2ccccc2c2c1Nc1ccccc1N2`, the zone of inhibition at 100 µg/mL in test [1] came out at 3 mm; in test [2], 3 mm; in test [3], 2 mm; in test [4], 1 mm; in test [5], 2 mm; in test [6], 2 mm.

For `O=c1oc2ccc(F)cc2c2c1Nc1ccccc1N2`, the zone of inhibition at 100 µg/mL in [1] amounted to 4 mm; in test [2] it was 3 mm; in test [3], 3 mm; in test [4], 3 mm; in [5], 2 mm; in test [6] it was 5 mm.

Turning to `Cc1cc2c(cc1C)Nc1c(c(=O)oc3ccc(Br)cc13)N2`, the zone of inhibition at 100 µg/mL in test [1] amounted to 7 mm; in test [2], 5 mm; in test [3] it was 6 mm; in test [4], 7 mm; in test [5] it was 4 mm; in [6], 9 mm.

Take `Cc1ccc2oc(=O)c3c(c2c1)Nc1ccccc1N3`: the zone of inhibition at 100 µg/mL in [1] came out at 4 mm; in test [2], 2 mm; in test [3], 3 mm; in test [4], 2 mm; in test [5] it was 2 mm; in test [6], 3 mm.

On to `Cc1cc2c(cc1C)Nc1c(c(=O)oc3ccccc13)N2`, for which the zone of inhibition at 100 µg/mL in [1] was 4 mm; in test [2] it was 3 mm; in test [3] it was 3 mm; in test [4] it was 2 mm; in [5] it was 2 mm; in test [6], 4 mm.

As to `Cc1cc2c(cc1C)Nc1c(c(=O)oc3ccc([N+](=O)[O-])cc13)N2`, the zone of inhibition at 100 µg/mL in [1] turned out to be 5 mm; in test [2] it was 4 mm; in test [3] it was 4 mm; in test [4], 4 mm; in test [5], 4 mm; in test [6] it was 5 mm.
